# Measured values as given in patent US20250040552A1, “FUNGICIDAL COMPOSITIONS” (SYNGENTA CROP PROTECTION AG, priority 2021, published 2025).
# Legend:
# [1] = tested on: Blumeria graminis f. sp. tritici (Erysiphe graminis f. sp. tritici); assay: Example A4: Blumeria graminis f. sp. tritici / wheat / leaf disc preventative (powdery mildew on wheat); type: in vivo; conditions: foliar, compared to untreated control
# Excerpt: Example A4: Blumeria graminis f. Sp. Tritici (Erysiphe graminis f. Sp. Tritici)/Wheat/Leaf Disc Preventative (Powdery Mildew on Wheat) Wheat leaf segments cv. Kanzler are placed on agar in a multiwell plate (24-well format) and sprayed with the formulated test compound diluted in water. The leaf disks are inoculated by shaking powdery mildew infected plants above the test plates 1 day after application. […] […].10, and X.11.
# [2] = tested on: Glomerella lagenarium (Colletotrichum lagenarium); assay: Example A3: Glomerella lagenarium (Colletotrichum lagenarium) / liquid culture (anthracnose); type: cell-based; conditions: Colletotrichum orbiculare, compared to untreated control
# Excerpt: Example A3: Glomerella lagenarium (Colletotrichum lagenarium)/Liquid Culture (Anthracnose) Conidia of the fungus from cryogenic storage are directly mixed into nutrient broth (PDB potato dextrose broth). […] […].10, and X.11.
# [3] = tested on: Magnaporthe grisea (Pyricularia oryzae); assay: whole plant or invertebrate; type: in vivo; conditions: foliar, read-out: control of Magnaporthe grisea
# Pyrenophora teres = assay: Example A12: Pyrenophora teres / barley / leaf disc preventative (net blotch); type: in vivo; conditions: foliar, compared to untreated control
# Procedure: Example A12: Pyrenophora teres/Barley/Leaf Disc Preventative (Net Blotch) Barley leaf segments cv. Hasso are placed on agar in a multiwell plate (24-well format) and sprayed with the formulated test compound diluted in water. The leaf […] inoculated with a spore suspension of the fungus 2 days after application. The inoculated leaf segments are incubated at 20° C. and 65% rh under a light regime of 12 h light/12 h darkness in a climate cabinet and the activity of a compound is assessed as disease control compared to untreated when an appropriate level of disease damage appears in untreated check leaf segments (5-7 days after application). […] […].10, and X.11.
# [4] = tested on: Monographella nivalis (Microdochium nivale); assay: Example A6: Monographella nivalis (Microdochium nivale) / liquid culture (foot rot cereals); type: cell-based; conditions: compared to untreated control
# Excerpt: Example A6: Monographella nivalis (Microdochium nivale)/Liquid Culture (Foot Rot Cereals) Conidia of the fungus from cryogenic storage are directly mixed into nutrient broth (PDB potato dextrose broth). […] […].10, and X.11.
# Alternaria solani = assay: Example A1: Alternaria solani / tomato / leaf disc (early blight); type: in vivo; conditions: foliar, tomato leaf disks, compared to untreated control
# Procedure: Example A1: Alternaria solani/Tomato/Leaf Disc (Early Blight) Tomato leaf disks cv. Baby are placed on agar in multiwell plates (24-well format) and sprayed with the formulated test compound diluted in water. The leaf disks are inoculated with a spore suspension of the fungus 2 days after application. The inoculated leaf disks are incubated at 23° C./21° C. […] […].10, and X.11.
# [5] = tested on: Puccinia recondita f. sp. tritici; assay: Example A10: Puccinia recondita f. sp. tritici / wheat / leaf disc preventative (brown rust); type: in vivo; conditions: foliar, compared to untreated control
# Procedure: Example A10: Puccinia recondita f. Sp. Tritici/Wheat/Leaf Disc Preventative (Brown Rust) Wheat leaf segments cv. Kanzler are placed on agar in multiwell plates (24-well format) and sprayed with the formulated test compound diluted in water. The leaf disks are inoculated with a spore suspension of the fungus 1 day after application. The inoculated leaf segments are incubated at 19° C. and 75% rh under a light regime of 12 h light/12 h darkness in a climate cabinet and the activity of a compound is assessed as percent disease control compared to untreated when an appropriate level of disease damage appears in untreated check leaf segments (7-9 days after application). […] […].10, and X.11.
# Sclerotinia sclerotiorum = assay: Example A13: Sclerotinia sclerotiorum / liquid culture (cottony rot); type: cell-based; conditions: 20 ppm, compared to untreated control
Structure (SMILES),pest or weed control at 200 ppm [1] [%],inhibition of growth at 20 ppm [2] [%],pest or weed control at 200 ppm [3] [%],pest or weed control at 200 ppm (Pyrenophora teres) [%],inhibition of growth at 20 ppm [4] [%],pest or weed control at 200 ppm (Alternaria solani) [%],pest or weed control at 200 ppm [5] [%],control of Sclerotinia sclerotiorum (Sclerotinia sclerotiorum)
"Cc1sc(N(C(=O)C2CCOC2)c2cc(F)nc(F)c2)nc1C(=O)N(C(=O)C1CCOC1)C1CCC1(C)C (centres unmarked) [Compound X.01, 2-[(2,6-difluoro-4-pyridyl)-(tetrahydrofuran-3-carbonyl)amino]-N-(2,2-dimethylcyclobutyl)-5-methyl-N-(tetrahydrofuran-3-carbonyl)thiazole-4-carboxamide]",≥ 80,≥ 80,≥ 80,≥ 80,≥ 80,≥ 80,≥ 80,
"Cc1sc(N(C(=O)C2CCCO2)c2cc(F)nc(F)c2)nc1C(=O)NC1CCC1(C)C (centres unmarked) [X.02, 2-[(2,6-difluoro-4-pyridyl)-(tetrahydrofuran-2-carbonyl)amino]-N-(2,2-dimethylcyclobutyl)-5-methyl-thiazole-4-carboxamide]",≥ 80,≥ 80,≥ 80,≥ 80,≥ 80,≥ 80,≥ 80,
"Cc1sc(N(C(=O)C2CCOC2)c2cc(F)nc(F)c2)nc1C(=O)NC1CCC1(C)C (centres unmarked) [X.03, 2-[(2,6-difluoro-4-pyridyl)-(tetrahydrofuran-3-carbonyl)amino]-N-(2,2-dimethylcyclobutyl)-5-methyl-thiazole-4-carboxamide]",≥ 80,≥ 80,≥ 80,≥ 80,≥ 80,≥ 80,≥ 80,
"Cc1sc(N(C(=O)C2COC2)c2cc(F)nc(F)c2)nc1C(=O)NC1CCC1(C)C (centres unmarked) [X.04, 2-[(2,6-difluoro-4-pyridyl)-(oxetane-3-carbonyl)amino]-N-(2,2-dimethylcyclobutyl)-5-methyl-thiazole-4-carboxamide]",≥ 80,≥ 80,≥ 80,≥ 80,≥ 80,≥ 80,≥ 80,
"Cc1sc(N(C(=O)C(C)OC(C)(C)C)c2cc(F)nc(F)c2)nc1C(=O)NC1CCC1(C)C (centres unmarked) [X.05, 2-[2-tert-butoxypropanoyl-(2,6-difluoro-4-pyridyl)amino]-N-(2,2-dimethylcyclobutyl)-5-methyl-thiazole-4-carboxamide]",≥ 80,,≥ 80,≥ 80,≥ 80,≥ 80,≥ 80,
"Cc1sc(N(C(=O)C(C)OC(C)C)c2cc(F)nc(F)c2)nc1C(=O)NC1CCC1(C)C (centres unmarked) [X.06, 2-[(2,6-difluoro-4-pyridyl)-(2-isopropoxypropanoyl)amino]-N-(2,2-dimethylcyclobutyl)-5-methyl-thiazole-4-carboxamide]",≥ 80,≥ 80,≥ 80,≥ 80,≥ 80,≥ 80,≥ 80,
"Cc1sc(N(C(=O)COC(C)(C)C)c2cc(F)nc(F)c2)nc1C(=O)NC1CCC1(C)C (centres unmarked) [X.07, 2-[(2-tert-butoxyacetyl)-(2,6-difluoro-4-pyridyl)amino]-N-(2,2-dimethylcyclobutyl)-5-methyl-thiazole-4-carboxamide]",≥ 80,,≥ 80,,,,,
"Cc1sc(N(C(=O)COC(C)C)c2cc(F)nc(F)c2)nc1C(=O)NC1CCC1(C)C (centres unmarked) [X.08, 2-[(2,6-difluoro-4-pyridyl)-(2-isopropoxyacetyl)amino]-N-(2,2-dimethylcyclobutyl)-5-methyl-thiazole-4-carboxamide]",≥ 80,,≥ 80,,,,,
"COC(C)C(=O)N(c1cc(F)nc(F)c1)c1nc(C(=O)NC2CCC2(C)C)c(C)s1 (centres unmarked) [X.09, 2-[(2,6-difluoro-4-pyridyl)-(2-methoxypropanoyl)amino]-N-(2,2-dimethylcyclobutyl)-5-methyl-thiazole-4-carboxamide]",≥ 80,≥ 80,≥ 80,≥ 80,≥ 80,≥ 80,≥ 80,
"Cc1sc(N(C(=O)C(C)S(C)(=O)=O)c2cc(F)nc(F)c2)nc1C(=O)NC1CCC1(C)C (centres unmarked) [X.10, 2-[(2,6-difluoro-4-pyridyl)-(2-methylsulfonylpropanoyl)amino]-N-(2,2-dimethylcyclobutyl)-5-methyl-thiazole-4-carboxamide]",≥ 80,≥ 80,≥ 80,≥ 80,≥ 80,≥ 80,,at least 80%
"Cc1sc(N(C(=O)C2CCOCC2)c2cc(F)nc(F)c2)nc1C(=O)NC1CCC1(C)C (centres unmarked) [X.11, 2-[(2,6-difluoro-4-pyridyl)-(tetrahydropyran-4-carbonyl)amino]-N-(2,2-dimethylcyclobutyl)-5-methyl-thiazole-4-carboxamide]",≥ 80,≥ 80,,≥ 80,≥ 80,≥ 80,≥ 80,
